Test results: the supplement of paper PMC11061612

Assays:
Test in all cases: Bliss excess, mean over the matrix (fraction); higher = more synergy
[1] = test system: L-363 (Plasma Cell Myeloma)
Outline: (§1)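 Bliss excess equals the observed combination effect minus the expected value EA + EB − EA·EB, where EA and EB are the effects of each agent alone. Combination Emax is the second-highest inhibition within the matrix. Inhibition was scaled from CellTiter-Glo 2.0 luminescence, with 0 set by vehicle wells and 1 by blank wells, after 72 hours of two-drug dosing of cells plated in 1536-well plates.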

[2] = test system: COR-L105 (Lung Adenocarcinoma)
Outline: as §1

[3] = test system: OVKATE (Ovarian Carcinoma)
Outline: as §1

[4] = test system: Daudi (Burkitt's Lymphoma)
Outline: as §1

[5] = test system: TK (B-Cell Non-Hodgkin's Lymphoma)
Outline: as §1

A375 (Melanoma) = test system: A375 (Melanoma)
Outline: as §1

[6] = test system: MRK-nu-1 (Breast Carcinoma)
Outline: as §1

[7] = test system: C2BBe1 (Colorectal Carcinoma)
Outline: as §1

[8] = test system: SBC-5 (Small Cell Lung Carcinoma)
Outline: as §1

SK-N-DZ (Neuroblastoma) = test system: SK-N-DZ (Neuroblastoma)
Outline: as §1

[9] = test system: GRANTA-519 (B-Cell Non-Hodgkin's Lymphoma)
Outline: as §1

[10] = test system: SW1463 (Colorectal Carcinoma)
Outline: as §1

[11] = test system: OCI-M1 (Acute Myeloid Leukemia)
Outline: as §1

[12] = test system: MDA-MB-175-VII (Breast Carcinoma)
Outline: as §1

[13] = test system: HT-1197 (Bladder Carcinoma)
Outline: as §1

[14] = test system: NCI-H1048 (Small Cell Lung Carcinoma)
Outline: as §1

[15] = test system: IGROV-1 (Ovarian Carcinoma)
Outline: as §1

[16] = test system: NCI-H1944 (Lung Adenocarcinoma)
Outline: as §1

[17] = test system: NCI-H2170 (Squamous Cell Lung Carcinoma)
Outline: as §1

C32 (Melanoma) = test system: C32 (Melanoma)
Outline: as §1

| SMILES | Bliss excess [1] | Bliss excess [2] | Bliss excess [3] | Bliss excess [4] | Bliss excess [5] | Bliss excess (A375 (Melanoma)) | Bliss excess [6] | Bliss excess [7] | Bliss excess [8] | Bliss excess (SK-N-DZ (Neuroblastoma)) | Bliss excess [9] | Bliss excess [10] | Bliss excess [11] | Bliss excess [12] | Bliss excess [13] | Bliss excess [14] | Bliss excess [15] | Bliss excess [16] | Bliss excess [17] | Bliss excess (C32 (Melanoma)) |
| --- | --- | --- | --- | --- | --- | --- | --- | --- | --- | --- | --- | --- | --- | --- | --- | --- | --- | --- | --- | --- |
| COc1nnc2ccc(N3CCC(c4ccc(OCCN5CCN(C)C(=O)[C@H]5C)cc4)CC3)nn12 [AZD5153] + Cn1cnc2c(F)c(Nc3ccc(Br)cc3Cl)c(C(=O)NOCCO)cc21 [Selumetinib] (first compound max 1 µM, 7x7, partner max 10 µM) | 0.0188 | 0.0622 | -0.0413 | -0.059 | -0.0524 | 0.0241 | -0.0169 | 0.0114 | 0.001 | 0.0017 | -0.0143 | 0.0243 | 0.0301 | 0.019 | 0.108 | -0.0108 | -0.0391 | -0.0008 | -0.0712 | 0.0709 |
| Cc1c2c(nn1C)CSCc1cc(n(C)n1)CSc1cc(c3ccccc3c1)OCCCc1c(C(=O)O)n(C)c3c-2c(Cl)ccc13 [AZD5991] + C1CN(CCC1(C(=O)N[C@@H](CCO)C2=CC=C(C=C2)Cl)N)C3=NC=NC4=C3C=CN4 [Capivasertib] (first compound max 1 µM, 7x7, partner max 3 µM) | 0.0476 | -0.0019 | -0.0461 | 0.0353 | -0.0039 | -0.0192 | 0.0055 | -0.0214 | -0.0069 | -0.001 | -0.0295 | -0.0085 | -0.0105 | 0.0261 | -0.0002 | 0.0267 | 0.0239 | 0.0254 | -0.0324 | 0.0009 |
| Cc1c2c(nn1C)CSCc1cc(n(C)n1)CSc1cc(c3ccccc3c1)OCCCc1c(C(=O)O)n(C)c3c-2c(Cl)ccc13 [AZD5991] + C=CCn1c(=O)c2cnc(Nc3ccc(N4CCN(C)CC4)cc3)nc2n1-c1cccc(C(C)(C)O)n1 [AZD1775] (first compound max 1 µM, partner max 1 µM) | 0.0077 | -0.0025 | -0.0123 | -0.0124 | -0.0721 | 0.0237 | -0.0285 | 0.0165 | 0.0501 | 0.0464 | -0.055 | -0.0158 | 0.0066 | -0.0223 | -0.0866 | 0.0002 | 0.0847 | -0.0472 | -0.0274 | 0.0452 |
| Cc1c2c(nn1C)CSCc1cc(n(C)n1)CSc1cc(c3ccccc3c1)OCCCc1c(C(=O)O)n(C)c3c-2c(Cl)ccc13 [AZD5991] + CC1(C)CCC(CN2CCN(c3ccc(C(=O)NS(=O)(=O)c4ccc(NCC5CCOCC5)c([N+](=O)[O-])c4)c(Oc4cnc5[nH]ccc5c4)c3)CC2)=C(c2ccc(Cl)cc2)C1 [Venetoclax] (first compound max 1 µM, 7x7, partner max 1 µM) | 0.0519 | -0.043 | -0.0527 | 0.0382 | 0.174 | -0.0063 | 0.0139 | 0.0031 | -0.0218 | 0.0428 | 0.0312 | -0.0589 | -0.0076 | -0.0306 | -0.0257 | 0.049 | -0.0326 | 0.0091 | -0.0333 | 0.0147 |
| Cc1c2c(nn1C)CSCc1cc(n(C)n1)CSc1cc(c3ccccc3c1)OCCCc1c(C(=O)O)n(C)c3c-2c(Cl)ccc13 [AZD5991] + CCN(CCO)CCCOc1ccc2c(Nc3cc(CC(=O)Nc4cccc(F)c4)[nH]n3)ncnc2c1 [AZD2811] (first compound max 1 µM, 7x7, partner max 1 µM) | 0.0523 | -0.0986 | -0.09 | 0.263 | 0.0228 | 0.0227 | 0.0321 | -0.0093 | 0.0523 | 0.043 | 0.109 | -0.0905 | 0.068 | 0.0441 | -0.0381 | 0.0766 | -0.0053 | 0.0457 | 0.0348 | 0.05 |
| Cc1c2c(nn1C)CSCc1cc(n(C)n1)CSc1cc(c3ccccc3c1)OCCCc1c(C(=O)O)n(C)c3c-2c(Cl)ccc13 [AZD5991] + CN(C)CCCOc1ccc(-c2ccc3ncc4c(c3c2)n(C2CCOCC2)c(=O)n4C)cn1 [AZD0156] (first compound max 1 µM, 7x7, partner max 1 µM) | 0.0235 | -0.0139 | -0.0708 | 0.0362 | 0.0046 | 0.0053 | -0.028 | 0.0009 | 0.0387 | 0.0063 | -0.0017 | -0.0212 | -0.0097 | 0.0076 | -0.0357 | 0.0136 | -0.0297 | 0.0049 | -0.0237 | -0.0076 |
| Cc1c2c(nn1C)CSCc1cc(n(C)n1)CSc1cc(c3ccccc3c1)OCCCc1c(C(=O)O)n(C)c3c-2c(Cl)ccc13 [AZD5991] + C[C@@H](Nc1cc(F)cc(F)c1)c1cc(C(=O)N(C)C)cc2c(=O)cc(N3CCOCC3)oc12 [AZD8186] (first compound max 1 µM, 7x7, partner max 3 µM) | -0.0476 | -0.0864 | -0.0298 | 0.0234 | -0.0143 | -0.0124 | 0.0152 | -0.026 | 0.0033 | -0.0328 | -0.0444 | -0.0398 | -0.0343 | -0.0006 | -0.0055 | 0.0019 | -0.0611 | -0.0141 | 0.0095 | 0.0051 |
